The record followed here is US10604512B2, “3-(1H-indol-2-yl)-1H-indazoles and therapeutic uses thereof” (Samumed, LLC, priority 2015, dated 2020).

This test concerns primary human mesenchymal stem cells (hMSCs). Put plainly: Induction of chondrogenesis in primary human mesenchymal stem cells (nodule imaging, Rhodamine B / Nile Red). It is filed as cell-based. Put shortly:
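hMSCs (passage 3–6) in incomplete chondrogenic induction medium dosed at 2700–10 nM (96-well) or 5000–2.2 nM (384-well), 0.03% DMSO, for 6 days at 37 °C. Fixed cells stained with Rhodamine B/Nile Red and nodule area imaged, normalized to DMSO wells (fold change). EC50 set against TGF-β3 (10 ng/mL); maximum activity and its dose also reported.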

Each structure is given as a SMILES string.

In the case of `Nc1cncc(-c2ccc3[nH]nc(-c4cc5c(-c6ccoc6)cccc5[nH]4)c3c2)c1` [Compound 311, 5-(3-(4-(Furan-3-yl)-1H-indol-2-yl)-1H-indazol-5-yl)pyridin-3-amine], the EC50 (concentration required to induce 50% levels of chondrogenesis vs TGF-β3 positive control, read-out: Conc (nM) of 50% TGF-β3 activity) amounted to 10 nM. Also, the Emax (maximum chondrogenesis activity relative to TGF-β3 (10 ng/mL) positive control, read-out: Max. Activity as % TGF-β3 activity) is 197%.
